Test [1] deals with HeLa cell line of human cervical carcinoma. As to the kind of experiment: Assay of cytotoxicity: HeLa cell growth inhibition (viable cell count, trypan blue exclusion). Particulars: compound alone; for number of living cells: three days of cultivation. In kind it is cell-based. As to the method:
The assay of cytotoxicity of the inventive preparations was carried out on the well-known human cervical carcinoma cell line HeLa. HeLa cells were cultivated in full cultivation medium, containing 80% of Eagle Minimal Essential Medium with glutamine (Sigma), 20% of normal bovine serum, penicillin 100 IE/ml and streptomycin 100 μg/ml. HeLa cell at concentration of 10^5 cells/ml were seed in 24-well plates for adhesive cell lines (Sarstedt) in volume of 2 ml per well. HeLa cells were cultivated in CO2-incubator at temperature 37° C. in humidified atmosphere, consisting of 95% air and 5% CO2. On the next day, the experimental cultures were supplemented with solutions of the inventive preparations in normal bovine serum (NBS) in a volume of 20 μl, in order to obtain the necessary concentration for studying these in cultures. Control cultures were supplemented with normal bovine serum. After that HeLa cells were cultivated two days again at the same conditions. On the third day, HeLa cells from each cultures were harvested separately using versen. The number of viable cells was counted using tryphan blue exclusion test and a hemocytometer.
For evaluation of the cytotoxic action of these assayed preparations on HeLa cells the means value and standard errors of means of viable cell numbers were calculated. The cell growth inhibition (%) was calculated as: [formula]
The extent of cell growth inhibition caused by the assayed preparations was used for evaluation of their cytotoxicity.

The test system of test [2] is Ehrlich ascites carcinoma (EAC). Nature of the test: Effect of pretreatment with compositions on antitumour action of DXR in mice with EAC. In kind it is in vivo. The following applies: DXR alone (positive control) 3.5 mg/kg i.v. day 1, 3, 5, 7, day 8. As to the method:
Randombred albino mice of the ICR line, female, from own rearing were used in the study. The room for animal housing is provided with filtered air at 15 changes per hour, temperature of 19-21° C., relative humidity of 50-60% and regulated light day of 12 hours with change of light and darkness at 6 h a.m. and 6 h p.m. The mice were kept in transparent polycarbonate cages with floor area of 600 cm^2 containing softwood sawdust bedding. The animals had free access to bottles with domestic quality drinking tap water and to standard feeding for growing animals ad libidum. The mice age 2-2.5 months, weighing 20-23 g were randomly distributed to the control and test groups, standardised by mean weights. The control and test groups included 15 and 12 animals respectively. Specific earmarks identified the mice from each group. […]
The mice were killed by cervical dislocation one day later after the final treatment with the test substances on day 8. Ascites fluids were removed, collected, their volumes were recorded, and abdominal cavities were washed by saline 6-7 times and both fluids were pooled. Volumes of tumour cell pellet after centrifugation at 1000 r.p.m. for 10 min were also recorded. Number of viable tumour cells was counted by haemocytometer. Means and standard errors for each of animal groups were calculated. […] Influence of the composition on EAC growth inhibition was evaluated by: [formula] […]

Setting [3] is: first series of concentrations (5.00-6.59×10^−10 mol/l final).
Setting [4] is: second series of concentrations (10.00-13.17×10^−10 mol/l final).

Here are results for three compounds from patent US6699851B2, “Cytotoxic compounds and their use” (Ardenia Investments, Ltd., priority 2000, dated 2004).

“And” between values parts separate entries of the source, which are not always exact repeats. Equal values may be shown once.

Take `CC1=C(/C=C/C(C)=C/C=C/C(C)=C/C(=O)N[C@@H](Cc2ccc(OP(=O)(O)O)cc2)C(=O)O)C(C)(C)CCC1` (stereo in doubt) [C11, N-(all-trans-retinoyl)-O-phospho-L-tyrosine]: in test [1] (setting [3]), the cell growth inhibition was determined as 17.1% and the “number of living cells” value was 376.7±24.52 ×10^3. Moreover, in test [1] (setting [4]), the cell growth inhibition worked out at 5.2% and the “number of living cells” value is on record as 430.8±16.37 ×10^3.

Regarding `CCC=CCC=CCC=CCC=CCC=CCC=CCCC(=O)NCCOP(=O)(O)O` [C6, N-docosahexaenoyl-O-phospho-2-aminoethanol], in test [1] (setting [3]), the cell growth inhibition was determined as 6.6% and the “number of living cells” value was 424.2±18.41 ×10^3. In test [1] (setting [4]), the cell growth inhibition amounted to 7.4% and the “number of living cells” value is given as 420.8±27.79 ×10^3.

For the compound `COc1cccc2c1C(=O)c1c(O)c3c(c(O)c1C2=O)C[C@@](O)(C(=O)CO)C[C@@H]3O[C@H]1C[C@H](N)[C@H](O)[C@H](C)O1` [DXR, Doxorubicin], in test [2], the EAC growth inhibition was 42.8% and 45.1% and 47.3% and 39.4% and 44.5%; the “number of tumour cells (EAC cells in abdominal cavity)” value is 525.2±74.5 ×10^6 and 436.3±51.8 ×10^6 and 614.4±60.2 ×10^6 and 542.6±50.1 ×10^6 and 534.8±39.3 ×10^6.
